In patent publication US20080166432A1, “Biotherapeutics for Mitigation of Health Disorders from Terminalia Arjuna” (Avestha Gengraine Technologies Pvt. Ltd., priority 2003, published 2008):

Key:
[1] = DPPH scavenging effect (antioxidant assay); format: physicochemical; settings: T. arjuna extracts from different plant parts
Description: This method is based on the reduction of DPPH, a stable free radical. Due to the odd electron of DPPH, it gives a strong absorption maximum at 517 nm by visible spectroscopy (purple color). As the odd electron of the radical becomes paired off in the presence of hydrogen donor, that is, a free-radical scavenging antioxidant, the absorption strength is decreased, and the resulting de-coloration is stoichiometric with respect to the number of electrons captured. This reaction has widely been used to evaluate the anti-oxidative activity of food and plant extracts.
Reactions were performed in 1.25 ml of methanol containing 0.5 mM freshly made DPPH and various amounts of the extract. Reaction mixtures were incubated at 37° C. for 30 min, and the absorbance at 517 nm was measured. This assay was done in triplicate.
Oxidant (DPPH) inhibitory activity (%)={(A517Control−A517 Sample)/A517Control}×100
IC50 is defined as the amount of extract required for 50% inhibition in the levels of free radical. Table 25 gives the IC50 values of Terminalia arjuna bark and fruit extracts.

endothelial cells = settings: ascorbate pretreatment; measured as citrulline formation and cGMP accumulation; cited from earlier work
[2] = system: Staphylococcus aureus ATCC-29737; assay: Antibacterial assay, agar streak method; format: cell-based; set-up: key: +++: abundant growth; ++: growth; +: less growth; −: no growth; settings: S. aureus
Description: (§1) Testing of anti-microbial potential was done against following bacterial strains (Gram negative: Escherichia coli ATCC-10536, Pseudomonas aeruginosa ATCC-9027, Klebsiella pneumoniea ATCC-10031, Bordetella bronchiseptica ATCC-4617; Gram Positive: Staphylococcus aureus ATCC-29737, Streptococcus fecalis ATCC-8043, Micrococcus luteus ATCC-9341, Bacillus subtilis ATCC-6633, Bacillus cereus ATCC-11778, Bacillus pumilus ATCC-14884, Staphylococcus epidermidis ATCC-6358) were selected from the microorganisms given in United states Pharmacopoeia (2000), British Pharmacopoeia (1993) and Indian Pharmacopoeia (1996) for anti-microbial assays.
(§2) A stock of 100 mg/ml of Ethyl acetate, Acetone, Ethanol, Methanol and Water successive extract from Terminalia arjuna bark and direct ethanol and successive water extracts from Terminalia arjuna fruit was dissolved in DMSO. To determine the antibacterial potential extracts at a concentration of 5 mg/ml and 1 mg/ml were added to 30 ml of luke warm Luria Bertaini agar medium. After the medium was solidified, overnight grown 11 bacterial strains mentioned were taken in loop and streaked on the medium. The plates were incubated at 37° C. for 24 hrs after which the bacterial growth was monitored. Suitable controls were maintained with the extracts and the microorganisms. Luria Bertaini agar medium with and without 1.5% DMSO were used as negative control set, Ciprofloxacin (2 μg/ml) served as positive control.

[3] = system: Escherichia coli ATCC-10536; assay: Antibacterial assay, agar streak method; format: cell-based; set-up: key: +++: abundant growth; ++: growth; +: less growth; −: no growth; settings: E. coli
Description: as §1, §2

[4] = system: Staphylococcus epidermidis ATCC-6358; assay: Antibacterial assay, agar streak method; format: cell-based; set-up: key: +++: abundant growth; ++: growth; +: less growth; −: no growth; settings: S. epidermidis
Description: as §1, §2

[5] = system: Micrococcus luteus ATCC-9341; assay: Antibacterial assay, agar streak method; format: cell-based; set-up: key: +++: abundant growth; ++: growth; +: less growth; −: no growth; settings: M. luteus
Description: as §1, §2

[6] = system: Bacillus pumilus ATCC-14884; assay: Antibacterial assay, agar streak method; format: cell-based; set-up: key: +++: abundant growth; ++: growth; +: less growth; −: no growth; settings: B. pumilus
Description: as §1, §2

[7] = system: Bacillus subtilis ATCC-6633; assay: Antibacterial assay, agar streak method; format: cell-based; set-up: key: +++: abundant growth; ++: growth; +: less growth; −: no growth; settings: B. subtilis; LB + Ciprofloxacin 2 μg/ml
Description: as §1, §2

[8] = system: Streptococcus fecalis ATCC-8043; assay: Antibacterial assay, agar streak method; format: cell-based; set-up: key: +++: abundant growth; ++: growth; +: less growth; −: no growth; settings: S. fecalis
Description: as §1, §2

[9] = system: Klebsiella pneumoniea ATCC-10031; assay: Antibacterial assay, agar streak method; format: cell-based; set-up: key: +++: abundant growth; ++: growth; +: less growth; −: no growth; settings: K. pneumoniea
Description: as §1, §2

[10] = system: Pseudomonas aeruginosa ATCC-9027; assay: Antibacterial assay, agar streak method; format: cell-based; set-up: key: +++: abundant growth; ++: growth; +: less growth; −: no growth; settings: P. aeruginosa
Description: as §1, §2

[11] = system: Bacillus cereus ATCC-11778; assay: Antibacterial assay, agar streak method; format: cell-based; set-up: key: +++: abundant growth; ++: growth; +: less growth; −: no growth; settings: B. cereus
Description: as §1, §2

[12] = system: Bordetella bronchiseptica ATCC-4617; assay: Antibacterial assay, agar streak method; format: cell-based; set-up: key: +++: abundant growth; ++: growth; +: less growth; −: no growth; settings: B. bronchiseptica
Description: as §1, §2

[13] = LB + Ciprofloxacin 2 μg/ml (Table 27)

In the case of `O=C1O[C@H]([C@@H](O)CO)C(O)=C1O` [Ascorbate, ascorbic acid], the “IC50 values of antioxidation potential” value [1] is listed as 26 µg/mL and the “increase of the cellular production of NO” value (endothelial cells) is listed as 3 fold.

With `O=C(O)c1cn(C2CC2)c2cc(N3CCNCC3)c(F)cc2c1=O` [Ciprofloxacin] the bacterial growth ([2]; LB + Ciprofloxacin 2 μg/ml) was “−”, the bacterial growth [2, 13] was “−” and the bacterial growth ([3]; LB + Ciprofloxacin 2 μg/ml) was “−”. For the same molecule, the bacterial growth [3, 13] was “−”, the bacterial growth ([4]; LB + Ciprofloxacin 2 μg/ml) was “−” and the bacterial growth [4, 13] was “−”. The bacterial growth ([5]; LB + Ciprofloxacin 2 μg/ml) was “−”, the bacterial growth [5, 13] was “−” and the bacterial growth ([6]; LB + Ciprofloxacin 2 μg/ml) was “−”. For the same molecule, the bacterial growth [6, 13] was “−”, the bacterial growth [7] was “−” and the bacterial growth ([8]; LB + Ciprofloxacin 2 μg/ml) was “−”. For the same molecule, the bacterial growth [8, 13] was “−”, the bacterial growth ([9]; LB + Ciprofloxacin 2 μg/ml) was “−” and the bacterial growth [9, 13] was “−”. The bacterial growth ([10]; LB + Ciprofloxacin 2 μg/ml) was “−”, the bacterial growth [10, 13] was “−” and the bacterial growth ([11]; LB + Ciprofloxacin 2 μg/ml) was “−”. For the same molecule, the bacterial growth [11, 13] was “−”, the bacterial growth ([12]; LB + Ciprofloxacin 2 μg/ml) was “−” and the bacterial growth [12, 13] was “−”.
